Measured values published in US20260167621A1, “Three Cluster Galactose Type Compound, Conjugate, Making Method and Use Thereof” (GUANGZHOU RIBOBIO CO., LTD., priority 2023, published 2026).

How the values were obtained:
[1] = In vivo hepatic targeting of GalNac-siRNA (siRNA concentration of hepatic tissue by qPCR); parameters: species or system Balb/c-nu mice; conditions: 100 mg/kg, tail vein injection once, livers 6 hours after administration; compared with negative control siRNA not linked to GalNAc
Description: Balb/c-nu mice, male, body weight ranged 18-22 g, were randomly divided into 3 groups, 5 mice/group, which respectively were blank control group, negative control group and targeting group, the administration dose was 100 mg/kg. The negative control group was administered by tail vein injection of negative control test substance (NC, Ribobio, siM200922112438) once, the targeting group was administered by tail vein injection of the obtained G1-12 test substance of example 6 once, the blank control group was administered an equal volume of saline. All animals' livers were immediately placed in liquid nitrogen after 6 hours of administration, then were saved at −80° C., the siRNA pharmaceutical concentration of hepatic tissue was tested by qPCR method. • 1. Drawing the standard curve. […] The average Ct values of each standard points were calculated based on the obtained Ct values, the log value of standard point concentration was abscissa, the obtained average Ct value was ordinate, the standard curve was drawn, the regression equation and R^2 were calculated, R^2>0.99. • 2. […] The mice liver samples were ground to powder by liquid nitrogen grinding method, and the weight of powder was measured. […] The sample Ct values were substituted into the regression equation of the standard curve, the siRNA content of samples was calculated.

[2] = target: T1, Hepatocyte ASGPR receptor (Homo sapiens, UniProt P07306); assay: Binding affinity test with hepatocyte ASGPR receptor (Cy5 flow cytometry, binding saturation curve)
T1 construct: endogenous in cells
T1 sequence (P07306 1-291): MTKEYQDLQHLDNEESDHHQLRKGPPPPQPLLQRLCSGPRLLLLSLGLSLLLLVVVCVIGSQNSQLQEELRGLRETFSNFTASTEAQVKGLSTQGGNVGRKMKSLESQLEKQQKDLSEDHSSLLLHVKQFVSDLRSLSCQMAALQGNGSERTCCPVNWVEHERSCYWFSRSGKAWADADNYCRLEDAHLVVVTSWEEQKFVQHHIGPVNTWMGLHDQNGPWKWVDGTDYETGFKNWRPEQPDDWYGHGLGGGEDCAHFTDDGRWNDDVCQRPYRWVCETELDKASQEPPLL
T1 sequence (P07307 1-311 partner): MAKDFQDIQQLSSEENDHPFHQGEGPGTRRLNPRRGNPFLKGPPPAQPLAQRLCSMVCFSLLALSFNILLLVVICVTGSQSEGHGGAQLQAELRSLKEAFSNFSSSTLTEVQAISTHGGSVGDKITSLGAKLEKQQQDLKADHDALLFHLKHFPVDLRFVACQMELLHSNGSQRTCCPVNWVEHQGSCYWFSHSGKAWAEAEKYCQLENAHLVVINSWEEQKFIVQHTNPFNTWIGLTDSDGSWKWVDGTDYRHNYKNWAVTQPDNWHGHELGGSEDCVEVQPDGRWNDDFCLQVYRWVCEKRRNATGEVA
Description: Embodiment 1: Binding Affinity Test with Hepatocyte ASGPR Receptor
The compound G1, G4, G5 obtained from the examples 1, 4, 5, bound to the above mentioned siRNA respectively to form conjugates which were shown in Table 1.
G1-12, G4-12, G5-12 (1 uM) were diluted respectively in a gradient according to the following Table 2.
The cell concentration was diluted by DMEM culture medium with 2% FBS to 4*10^5 cells/mL.
200 μL cells of each sample and 200 μL siRNA were mixed uniformly, 200 μL cells of the blank control group and 200 μL culture medium were mixed uniformly, and were added in 3 wells of 96-well plate with U-shaped bottom, 100 μL each well. Samples of each concentration of all siRNA were placed in the ice box after sampling, and were placed in decolorization shaker and incubated in dark for 2 hours.
50 g of 96-well plate with U-shaped bottom was centrifuged for 2 minutes at 4° C. 80 μL supernatant was aspirated and discarded by pipette, 10 μg/mL propidium iodide was prepared by using of PBS with 2% FBS, 100 μL PI reagent was added in each well and was stained for 15 minutes. After staining, 50 g of 96-well plate with U-shaped bottom was centrifuged for 2 minutes at 4° C. After washed by PBS with 2% FBS for twice, 100 μL PBS with 2% FBS was added for resuspension, flow cytometer was used to test and count the average Cy5 fluorescence intensity of live cell population.

For “G1-12: G1 bound to 5' end of SEQ ID NO: 1, paired with 5'-Cy5 SEQ ID NO: 2; structure Z1 (sense GUAUGUUGCCCGUUUGUCC; antisense GGACAAACGGGCAACAUACCU; G1 ligand 5'; Cy5 label; modified_base join(1,5,8,12,16) OTHER; deoxyribonucleotide modification; modified_base 3 OTHER; thiophosphorylated skeleton modification and deoxyribonucleotide modification; modified_base join(4,6,7,9,10,11,13,14,15,17) OTHER; 2'-fluoro modification; modified_base join(2,18,19) OTHER; thiophosphorylated skeleton modification and 2'-fluoro modification; modified_base join(1,5,7,9,11,13,15,17) OTHER; 2'-O-methyl modification; modified_base join(3,19,20,21) OTHER; thiophosphorylated skeleton modification and 2'-O-methyl modification; modified_base join(2,4) OTHER; …) [Compound G1-12]”, the “distribution in mice liver (siRNA content of hepatic tissue)” value [1] was “obviously increased”, the Bmax ([2]; average Cy5 fluorescence intensity of live cells minus blank, one site binding (hyperbola) fit, 0.9-100 nM, 2 hours on ice) was 153854 and the Kd ([2]; one site binding (hyperbola) fit of Cy5 fluorescence, 0.9-100 nM, 2 hours on ice, read-out: Kd (dissociation equilibrium constant)) was 1.98 nM. The “binding affinity with ASGPR receptor” value ([2]; statement in words from Table 3) was “reach a higher level”.
